Test results taken from patent publication US20260193293A1, “PEPTIDES CAPABLE OF INHIBITING PROTEIN-PROTEIN INTERACTIONS AT GABAB1A SUBUNIT AND USES THEREOF” (UNIVERSITY OF COPENHAGEN, priority 2022, published 2026).
Like-named read-outs stand apart in the source and are kept apart here. Values belong to the compound of their own block, whether it stands above or below them. Non-standard residues stand in square brackets, D forms with d. Residues, ends and D or L forms follow the SMILES beside them. *: point of attachment. 2Nal = N[C@@H](Cc1ccc2ccccc2c1)C(=O)O; Bn = c1ccc(C*)cc1

Target: Sushi domains (SD1/2) protein
Assay: Fluorescence polarization (FP) competition assay with AJAP-1probe, calculated Ki
Assay type: binding
Procedure, shortened: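 Competition against 25 nM TAMRA-labelled peptide probe binding SD1/2, in PBS pH 7.4 with 1% BSA at rt, read at 530/580 nm. IC50 from sigmoidal dose-response fits, at least triplicate; Ki calculated from IC50 using probe Kd from saturation binding.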

[1] = CPP tagged peptides overview, SD1/2 binding affinity, mean ± SEM, n ≥ 3, read-out: Ki
[2] = Table 14, CPPs tagged peptides, read-out: Ki (nM) mean ± SEM
[3] = Table 16, ncAAs incorporated peptides, read-out: Ki (nM) mean ± SEM
[4] = Table 4, truncation and elongation scans of APP epitope, read-out: Ki (nM) mean ± SEM
[5] = Table 1, affinity maturation, mean ± SEM, n ≥ 3, read-out: Ki
[6] = Table 13, peptides for affinity maturation, read-out: Ki (nM) mean ± SEM
[7] = Table 10, deep mutational scanning validation variants of APPWT, read-out: Ki (nM) mean ± SEM
[8] = Table 11, deep mutational scanning validation variants of AJAP-1WT, read-out: Ki (nM) mean ± SEM

SMILES: CC[C@H](C)[C@H](NC(=O)[C@H](Cc1c[nH]c2ccccc12)NC(=O)[C@H](CC(=O)O)NC(=O)[C@H](CC(=O)O)NC(=O)[C@H](CC(=O)O)NC(=O)[C@H](CCC(=O)O)NC(=O)[C@H](CCCNC(=N)N)NC(=O)[C@H](CCCNC(=N)N)NC(=O)[C@H](CCCNC(=N)N)NC(=O)[C@H](CCC(N)=O)NC(=O)[C@H](CCCNC(=N)N)NC(=O)[C@H](CCCNC(=N)N)NC(=O)[C@H](CCCCN)NC(=O)[C@H](CCCCN)NC(=O)[C@H](CCCNC(=N)N)NC(=O)CNC(=O)[C@H](Cc1ccc(O)cc1)NC(C)=O)C(=O)N[C@@H](CC(=O)O)C(=O)N[C@@H](Cc1c[nH]c2ccccc12)C(=O)NCC(=O)N1CCC[C@H]1C(=O)N[C@H](C(=O)N[C@@H](CO)C(=O)N[C@@H](CC(=O)O)C(=O)N[C@@H](CC(=O)O)C(=O)N[C@@H](CC(=O)O)C(N)=O)[C@@H](C)O [Tat-17] (Ac-YGRKKRRQRRREDDDWIDWGPTSDDD-NH2)
Ki [1]: 50 ± 2 nM | Ki [2]: 49.9 ± 2 nM

SMILES: CC(=O)N[C@@H](Cc1c[nH]c2ccccc12)C(=O)NCC(=O)NCC(=O)N[C@@H](C)C(=O)N[C@@H](CC(=O)O)C(=O)N[C@H](C(=O)N[C@@H](CC(=O)O)C(=O)N[C@@H](Cc1ccc(O)cc1)C(=O)N[C@@H](C)C(=O)N[C@@H](CC(=O)O)C(N)=O)[C@@H](C)O (Ac-WGGADTDYAD-NH2)
Ki [4]: > 62500 nM

SMILES: CC[C@H](C)[C@H](NC(=O)[C@H](Cc1ccccc1)NC(=O)[C@H](CCC(=O)O)NC(=O)[C@@H](NC(=O)[C@H](CCC(=O)O)NC(=O)[C@@H](NC(=O)[C@@H](NC(=O)[C@@H]1CCCN1C(=O)[C@H](CCCNC(=N)N)NC(C)=O)[C@@H](C)O)[C@@H](C)O)[C@@H](C)O)C(=O)N[C@@H](C)C(=O)N[C@@H](Cc1c[nH]c2ccccc12)C(=O)NCC(=O)N1CCC[C@H]1C(=O)N[C@H](C(=O)NCC(=O)N[C@@H](CC(=O)O)C(=O)N[C@@H](CCC(=O)O)C(=O)N[C@@H](CC(=O)O)C(N)=O)[C@@H](C)O
Ki (Table 5, elongation and truncation scan of AJAP-1 binding epitope, read-out: Ki (nM) mean ± SEM): 58 ± 0.4 nM

SMILES: CC[C@H](C)[C@H](NC(=O)[C@H](Cc1ccccc1)NC(=O)[C@H](CCC(=O)O)NC(=O)[C@@H](NC(=O)[C@H](CCC(=O)O)NC(C)=O)[C@@H](C)O)C(=O)N[C@@H](C)C(=O)N[C@@H](Cc1c[nH]c2ccccc12)C(=O)NCC(=O)N1CCC[C@H]1C(=O)N[C@H](C(=O)NCC(=O)N[C@@H](CC(=O)O)C(=O)N[C@@H](CC(=O)O)C(=O)N[C@@H](CC(=O)O)C(N)=O)[C@@H](C)O (Ac-ETEFIAWGPTGDDD-NH2)
Ki [8]: 27 ± 2 nM

SMILES: CC[C@H](C)[C@H](NC(=O)[C@H](Cc1ccccc1)NC(=O)[C@H](CCC(=O)O)NC(=O)[C@@H](NC(=O)[C@H](CCC(=O)O)NC(C)=O)[C@@H](C)O)C(=O)N[C@@H](C)C(=O)N[C@@H](Cc1c[nH]c2ccccc12)C(=O)N[C@@H](Cc1ccc(O)cc1)C(=O)NCC(=O)N1CCC[C@H]1C(=O)N[C@H](C(=O)NCC(=O)N[C@@H](CC(=O)O)C(=O)N[C@@H](CCC(=O)O)C(=O)N[C@@H](CC(=O)O)C(N)=O)[C@@H](C)O [ETEFIAWYGPTGDED] (Ac-ETEFIAWYGPTGDED-NH2)
Ki [6]: 195 ± 7 nM

SMILES: CC[C@H](C)[C@H](NC(=O)[C@H](Cc1ccccc1)NC(=O)[C@H](CCC(=O)O)NC(=O)[C@@H](NC(=O)[C@H](CCC(=O)O)NC(C)=O)[C@@H](C)O)C(=O)N[C@@H](C)C(=O)N[C@@H](Cc1c[nH]c2ccccc12)C(=O)NCC(=O)N1CCC[C@H]1C(=O)N[C@H](C(=O)NCC(=O)N[C@@H](CC(=O)O)C(=O)N[C@@H](Cc1c[nH]cn1)C(=O)N[C@@H](CC(=O)O)C(N)=O)[C@@H](C)O
Ki [8]: 39 ± 2 nM

SMILES: CC[C@H](C)[C@H](NC(=O)[C@H](C)NC(=O)[C@H](Cc1c[nH]c2ccccc12)NC(=O)[C@@H]1CCCN1C(=O)[C@H](Cc1ccc(O)cc1)NC(=O)[C@H](CCC(N)=O)NC(=O)[C@H](CO)NC(C)=O)C(=O)N[C@H](C(=O)N[C@@H](Cc1c[nH]c2ccccc12)C(=O)NCC(=O)N1CCC[C@H]1C(=O)N[C@H](C(=O)N[C@H](C(=O)N[C@@H](CO)C(=O)N[C@@H](CCCNC(=N)N)C(=O)N[C@@H](CCC(=O)O)C(=O)N[C@@H](CC(=O)O)C(=O)NCC(N)=O)C(C)C)[C@@H](C)O)C(C)C (Ac-SQYPWAIVWGPTVSREDG-NH2)
Ki (Table 6, elongation and truncation scan of PIANP binding epitope, read-out: Ki (nM) mean ± SEM): 762 ± 13 nM

SMILES: CC[C@H](C)[C@H](NC(=O)[C@H](Cc1ccccc1)NC(=O)[C@H](CCC(=O)O)NC(=O)[C@@H](NC(=O)[C@H](CCC(=O)O)NC(C)=O)[C@@H](C)O)C(=O)N[C@@H](C)C(=O)N[C@@H](Cc1c[nH]c2ccccc12)C(=O)NCC(=O)N[C@@H](C)C(=O)N[C@H](C(=O)NCC(=O)N[C@@H](CC(=O)O)C(=O)N[C@@H](CCC(=O)O)C(=O)N[C@@H](CC(=O)O)C(N)=O)[C@@H](C)O [ETEFIAWGATGDED] (Ac-ETEFIAWGATGDED-NH2)
Ki (Table 8, Ala-, D-amino acids and N-methylation scans of AJAP-1WT, read-out: Ki (nM) mean ± SEM): 291 ± 6 nM

SMILES: CC[C@H](C)[C@H](NC(=O)[C@H](Cc1c[nH]c2ccccc12)NC(=O)[C@H](CC(=O)O)NC(=O)[C@H](CC(=O)O)NC(=O)[C@H](CC(=O)O)NC(=O)[C@H](CCC(=O)O)NC(C)=O)C(=O)N[C@@H](CC(=O)O)C(=O)N[C@@H](Cc1c[nH]c2ccccc12)C(=O)NCC(=O)N1CCC[C@H]1C(=O)N[C@H](C(=O)N[C@@H](CO)C(=O)N[C@@H](CC(=O)O)C(=O)N[C@@H](CC(=O)O)C(=O)N[C@@H](CC(=O)O)C(=O)NCC(=O)NCC(=O)NCC(=O)NCC(=O)N[C@@H](CO)C(=O)N[C@@H](CCCNC(=N)N)C(=O)N[C@@H](CCCNC(=N)N)C(=O)N[C@@H](CCCNC(=N)N)C(=O)N[C@@H](CCCNC(=N)N)C(=O)N[C@@H](CCCNC(=N)N)C(=O)N[C@@H](CCCNC(=N)N)C(=O)N[C@@H](CCCNC(=N)N)C(=O)N[C@@H](CCCNC(=N)N)C(N)=O)[C@@H](C)O [Peptide 17-FL-R8] (Ac-EDDDWIDWGPTSDDDGGGGSRRRRRRRR-NH2)
Ki [1]: 147 ± 9 nM | Ki [2]: 147 ± 9 nM

Next, values leading:

Ki [3]: 75 ± 1 nM
SMILES: CC(=O)N[C@@H](CCC(=O)O)C(=O)N[C@@H](CC(=O)O)C(=O)N[C@@H](CC(=O)O)C(=O)N[C@@H](CO)C(=O)N[C@@H](CC(=O)O)C(=O)N[C@H](C(=O)N[C@@H](Cc1c[nH]c2ccccc12)C(=O)N[C@@H](Cc1c[nH]c2ccccc12)C(=O)N[C@@H](Cc1ccc2ccccc2c1)C(=O)NCC(=O)N[C@@H](C)C(=O)N[C@@H](CC(=O)O)C(=O)N[C@H](C(=O)N[C@@H](CC(=O)O)C(N)=O)[C@@H](C)O)C(C)C (Ac-EDDSDVWW[2Nal]GADTD-NH2)

Ki [5]: 3.8 ± 0.2 nM | Ki [6]: 3.8 ± 0.2 nM
SMILES: CC[C@H](C)[C@H](NC(=O)[C@H](Cc1ccc(O)cc1)NC(=O)[C@H](CC(=O)O)NC(=O)[C@H](CC(=O)O)NC(=O)[C@H](CCC(=O)O)NC(C)=O)C(=O)N[C@@H](CC(=O)O)C(=O)N[C@@H](Cc1c[nH]c2ccccc12)C(=O)NCC(=O)N1CCC[C@H]1C(=O)N[C@H](C(=O)N[C@@H](CO)C(=O)N[C@@H](CC(=O)O)C(=O)N[C@@H](CC(=O)O)C(=O)N[C@@H](CC(=O)O)C(N)=O)[C@@H](C)O [Peptide 19] (Ac-EDDYIDWGPTSDDD-NH2)

Ki [4]: 301 ± 7 nM
SMILES: CC(=O)N[C@@H](CCC(=O)O)C(=O)N[C@@H](CCC(=O)O)C(=O)N[C@@H](CC(=O)O)C(=O)N[C@@H](CC(=O)O)C(=O)N[C@@H](CO)C(=O)N[C@@H](CC(=O)O)C(=O)N[C@H](C(=O)N[C@@H](Cc1c[nH]c2ccccc12)C(=O)N[C@@H](Cc1c[nH]c2ccccc12)C(=O)NCC(=O)NCC(=O)N[C@@H](C)C(=O)N[C@@H](CC(=O)O)C(=O)N[C@H](C(=O)N[C@@H](CC(=O)O)C(=O)N[C@@H](Cc1ccc(O)cc1)C(N)=O)[C@@H](C)O)C(C)C (Ac-EEDDSDVWWGGADTDY-NH2)

Ki [7]: 337 ± 10 nM
SMILES: CC(=O)N[C@@H](CCC(=O)O)C(=O)N[C@@H](CC(=O)O)C(=O)N[C@@H](CC(=O)O)C(=O)N[C@@H](CO)C(=O)N[C@@H](CC(=O)O)C(=O)N[C@H](C(=O)N[C@@H](Cc1c[nH]c2ccccc12)C(=O)N[C@@H](Cc1c[nH]c2ccccc12)C(=O)NCC(=O)NCC(=O)N[C@@H](C)C(=O)N[C@@H](CC(=O)O)C(=O)N[C@@H](CCC(=O)O)C(=O)N[C@@H](CC(=O)O)C(N)=O)C(C)C [EDDSDVWWGGADED] (Ac-EDDSDVWWGGADED-NH2)

Ki [7]: 429 ± 7 nM
SMILES: CC(=O)N[C@@H](CCC(=O)O)C(=O)N[C@@H](CC(=O)O)C(=O)N[C@@H](CC(=O)O)C(=O)N[C@@H](CO)C(=O)N[C@@H](CC(=O)O)C(=O)N[C@H](C(=O)N[C@@H](Cc1c[nH]c2ccccc12)C(=O)N[C@@H](Cc1c[nH]c2ccccc12)C(=O)N[C@@H](CC(=O)O)C(=O)NCC(=O)N[C@@H](C)C(=O)N[C@@H](CC(=O)O)C(=O)N[C@H](C(=O)N[C@@H](CC(=O)O)C(N)=O)[C@@H](C)O)C(C)C (Ac-EDDSDVWWDGADTD-NH2)

Ki [3]: 88 ± 4 nM
SMILES: CC(=O)N[C@@H](CCC(=O)O)C(=O)N[C@@H](CC(=O)O)C(=O)N[C@@H](CC(=O)O)C(=O)N[C@@H](CO)C(=O)N[C@@H](CC(=O)O)C(=O)N[C@H](C(=O)N[C@@H](Cc1c[nH]c2ccccc12)C(=O)N[C@@H](Cc1c[nH]c2ccccc12)C(=O)N[C@@H](Cc1ccc(OCc2ccccc2)cc1)C(=O)NCC(=O)N[C@@H](C)C(=O)N[C@@H](CC(=O)O)C(=O)N[C@H](C(=O)N[C@@H](CC(=O)O)C(N)=O)[C@@H](C)O)C(C)C (Ac-EDDSDVWWY(Bn)GADTD-NH2)

Ki [5]: 6.5 ± 0.4 nM | Ki [3]: 6.5 ± 0.4 nM
SMILES: CCOc1ccc(C[C@H](NC(=O)[C@H](CC(=O)O)NC(=O)[C@H](CC(=O)O)NC(=O)[C@H](CC(=O)O)NC(=O)[C@H](CCC(=O)O)NC(C)=O)C(=O)N[C@H](C(=O)N[C@@H](CC(=O)O)C(=O)N[C@@H](Cc2c[nH]c3ccccc23)C(=O)NCC(=O)N2CCC[C@H]2C(=O)N[C@H](C(=O)N[C@@H](CO)C(=O)N[C@@H](CC(=O)O)C(=O)N[C@@H](CC(=O)O)C(=O)N[C@@H](CC(=O)O)C(N)=O)[C@@H](C)O)[C@@H](C)CC)cc1 [Peptide 34] (Ac-EDDDY(Et)IDWGPTSDDD-NH2)
